What was measured:
WDR5 [1] = target: T1, WDR5 (Homo sapiens, UniProt P61964); assay: Surface Plasmon Resonance (SPR) assay; assay type: binding; design: Full length WDR5 with an N-terminal His tag and C-terminal AviTag; His tag (N); made in house; host or cells: E. coli; conditions: read-out: SPR Kd
In short: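 Full-length biotinylated WDR5 (N-His, C-AviTag, E. coli) captured (~3000 RU) on streptavidin SA chip; Biacore T200. HBS-EP pH 7.4 plus 5% DMSO running buffer, 40 μl/min.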

WDR5 [2] = target: T1, WDR5; assay: Fluorescence Polarization (FP) binding assay
In short: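 Buffer was pH 6.5 sodium phosphate (80 mM) with 20 mM KCl and 0.008% Triton X-100; 9-Ala-FAM probe at 20 nM used 0.05 μM WDR5 and 480/540 nm polarization, H3 (1-15) probe at 30 nM used 0.3 μM WDR5 and 485/528 nm. Quadruplicate data were hyperbola-fitted to give Kdisp.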

MV4-11 cells = assay: Cell proliferation assay (ATPlite); assay type: cell-based; conditions: Homo sapiens, 120 h; MV4-11 cells, five days; read-out: GI MV411 EC50
In short: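 ATPlite luminescence after five days' culture (37° C, 5% CO2) gives viability. Compounds dosed in 10 concentrations up to 10 μM against DMSO; 1,000 cells/well seeded in Alpha-MEM/10% FBS.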

Row | SMILES | Kd (WDR5 [1]) | IC50 (WDR5 [2]) | EC50 (MV4-11 cells)
1 | C[C@H]1CN(c2cc(F)c(C3=CCN(C(=O)OC4(C)CCC4)CC3)c(F)c2NC(=O)c2c[nH]c(=O)cc2C(F)F)CCN1C [Example 92, 1-Methylcyclobutyl(S)-4-(3-(4-(difluoromethyl)-6-oxo-1,6-dihydropyridine-3-carboxamido)-4-(3,4-dimethylpiperazin-1-yl)-2,6-difluorophenyl)-3,6-dihydropyridine-1(2H)-carboxylate] | 0.00279 µM | 0.0156 µM | 0.0228 µM
2 | C[C@@H]1CN(c2cc(F)c(-c3cnc4c(c3)OCCO4)c(F)c2NC(=O)c2c[nH]c(=O)cc2C(F)(F)F)C[C@H](C)N1C [Example 73, N-(3-(2,3-dihydro-[1,4]dioxino[2,3-b]pyridin-7-yl)-2,4-difluoro-6-((3S,5R)-3,4,5-trimethylpiperazin-1-yl)phenyl)-6-oxo-4-(trifluoromethyl)-1,6-dihydropyridine-3-carboxamide] | 0.00126 µM | 0.0168 µM | 0.11 µM
3 | C[C@H]1CN(c2cc(F)c(C3=CCN(c4ncc(F)cn4)CC3)c(F)c2NC(=O)c2c[nH]c(=O)cc2C(F)F)CCN1C [Example 81, (S)-4-(difluoromethyl)-N-(6-(3,4-dimethylpiperazin-1-yl)-2,4-difluoro-3-(1-(5-fluoropyrimidin-2-yl)-1,2,3,6-tetrahydropyridin-4-yl)phenyl)-6-oxo-1,6-dihydropyridine-3-carboxamide] | 0.00137 µM | 0.0125 µM | 0.044 µM
4 | C[C@H]1CN(c2cc(F)c(C3=CCN(c4ncc(F)cn4)C3)c(F)c2NC(=O)c2c[nH]c(=O)cc2C(F)(F)F)CCN1C [Example 80, (S)—N-(6-(3,4-dimethylpiperazin-1-yl)-2,4-difluoro-3-(1-(5-fluoropyrimidin-2-yl)-2,5-dihydro-1H-pyrrol-3-yl)phenyl)-6-oxo-4-(trifluoromethyl)-1,6-dihydropyridine-3-carboxamide] | 0.00127 µM | 0.023 µM | 0.0583 µM
5 | C[C@@H]1CN(c2cc(F)c(C3=CCN(c4ncc(F)cn4)C3)c(F)c2NC(=O)c2c[nH]c(=O)cc2C(F)(F)F)C[C@H](C)N1C [Example 147, N-(2,4-difluoro-3-(1-(5-fluoropyrimidin-2-yl)-2,5-dihydro-1H-pyrrol-3-yl)-6-((3S,5R)-3,4,5-trimethylpiperazin-1-yl)phenyl)-6-oxo-4-(trifluoromethyl)-1,6-dihydropyridine-3-carboxamide] | 0.00071 µM | 0.0195 µM | 0.0376 µM
6 | C[C@@H]1CN(c2nccc(-c3c(F)cc(N4C[C@@H](C)N(C)[C@@H](C)C4)c(NC(=O)c4c[nH]c(=O)cc4C(F)F)c3F)n2)C[C@H](C)O1 [Example 78, 4-(Difluoromethyl)-N-(3-(2-((2S,6R)-2,6-dimethylmorpholino)pyrimidin-4-yl)-2,4-difluoro-6-((3S,5R)-3,4,5-trimethylpiperazin-1-yl)phenyl)-6-oxo-1,6-dihydropyridine-3-carboxamide] | 0.00116 µM | 0.0147 µM | 0.0641 µM
7 | C[C@@H]1CN(c2cc(F)c(C3=CCCN(C(=O)OC4CC(F)(F)C4)C3)c(F)c2NC(=O)c2c[nH]c(=O)cc2C(F)(F)F)C[C@H](C)N1C [Example 20, 3,3-Difluorocyclobutyl 5-(2,6-difluoro-3-(6-oxo-4-(trifluoromethyl)-1,6-dihydropyridine-3-carboxamido)-4-((3S,5R)-3,4,5-trimethylpiperazin-1-yl)phenyl)-3,6-dihydropyridine-1(2H)-carboxylate] | 0.00206 µM | 0.0141 µM | 0.153 µM
8 | C[C@H]1CN(c2cc(F)c(C3=CCN(c4ccnc(C#N)n4)C3)c(F)c2NC(=O)c2c[nH]c(=O)cc2C(F)(F)F)CCN1C [Example 107, (S)—N-(3-(1-(2-cyanopyrimidin-4-yl)-2,5-dihydro-1H-pyrrol-3-yl)-6-(3,4-dimethylpiperazin-1-yl)-2,4-difluorophenyl)-6-oxo-4-(trifluoromethyl)-1,6-dihydropyridine-3-carboxamide] | 0.00262 µM | 0.0143 µM | 0.0601 µM
9 | C[C@@H]1CN(c2ncc(-c3c(F)cc(N4CCN(C)[C@@H](C)C4)c(NC(=O)c4ccc(F)cc4C(F)F)c3F)cn2)C[C@H](C)O1 [Example 110, 2-(Difluoromethyl)-N-(3-(2-((2S,6R)-2,6-dimethylmorpholino)pyrimidin-5-yl)-6-((S)-3,4-dimethylpiperazin-1-yl)-2,4-difluorophenyl)-4-fluorobenzamide formic acid] | 0.00194 µM | 0.0109 µM | 0.0332 µM
10 | C[C@H]1CN(c2cc(F)c(C3=CCN(C(=O)OC4CC(F)(F)C4)C3)c(F)c2NC(=O)c2c[nH]c(=O)cc2C(F)F)CCN1C [Example 44] | 0.00232 µM | 0.0144 µM | 0.18 µM
11 | COc1cc(N2CCC=C(c3c(F)cc(N4CCN(C)[C@@H](C)C4)c(NC(=O)c4c[nH]c(=O)cc4C(F)F)c3F)C2)ncn1 [Example 79, (S)-4-(difluoromethyl)-N-(6-(3,4-dimethylpiperazin-1-yl)-2,4-difluoro-3-(1-(6-methoxypyrimidin-4-yl)-1,2,5,6-tetrahydropyridin-3-yl)phenyl)-6-oxo-1,6-dihydropyridine-3-carboxamide] | 0.00167 µM | 0.0136 µM | 0.223 µM
12 | C[C@@H]1CN(c2cc(F)c(-c3cnc(N(C)C)c(F)c3)c(F)c2NC(=O)c2c[nH]c(=O)cc2C(F)(F)F)C[C@H](C)N1C [Example 63, N-(3-(6-(dimethylamino)-5-fluoropyridin-3-yl)-2,4-difluoro-6-((3S,5R)-3,4,5-trimethylpiperazin-1-yl)phenyl)-6-oxo-4-(trifluoromethyl)-1,6-dihydropyridine-3-carboxamide] | 0.00181 µM | 0.013 µM | 0.0618 µM
13 | CC(C)OC(=O)N1CC=C(c2c(F)cc(N3C[C@@H](C)N(C)[C@@H](C)C3)c(NC(=O)c3c[nH]c(=O)cc3C(F)(F)F)c2F)CC1 [Example 133] | 0.00262 µM | 0.0123 µM | 0.0585 µM
14 | CC(C)[C@H]1CN(c2ncc(-c3c(F)cc(N4CCN(C)[C@@H](C)C4)c(NC(=O)c4c[nH]c(=O)cc4C(F)F)c3F)cn2)CCO1 [Example 121, 4-(Difluoromethyl)-N-(6-((S)-3,4-dimethylpiperazin-1-yl)-2,4-difluoro-3-(2-((S)-2-isopropylmorpholino)pyrimidin-5-yl)phenyl)-6-oxo-1,6-dihydropyridine-3-carboxamide] | 0.00107 µM | 0.0119 µM | 0.0157 µM
15 | COc1cc(N2CC=C(c3c(F)cc(N4CCN(C)[C@@H](C)C4)c(NC(=O)c4c[nH]c(=O)cc4C(F)(F)F)c3F)CC2)ncn1 [Example 76, (S)—N-(6-(3,4-dimethylpiperazin-1-yl)-2,4-difluoro-3-(1-(6-methoxypyrimidin-4-yl)-1,2,3,6-tetrahydropyridin-4-yl)phenyl)-6-oxo-4-(trifluoromethyl)-1,6-dihydropyridine-3-carboxamide] | 0.00142 µM | 0.0216 µM | 0.042 µM
16 | C[C@H]1CN(c2cc(F)c(C3=CCN(C(=O)OC4CC(F)(F)C4)CC3)c(F)c2NC(=O)c2c[nH]c(=O)cc2C(F)F)CCN1C [Example 42, 3,3-Difluorocyclobutyl (S)-4-(3-(4-(difluoromethyl)-6-oxo-1,6-dihydropyridine-3-carboxamido)-4-(3,4-dimethylpiperazin-1-yl)-2,6-difluorophenyl)-3,6-dihydropyridine-1(2H)-carboxylate] | 0.00238 µM | 0.0112 µM | 0.281 µM
17 | C[C@@H]1CN(c2cc(F)c(-c3cnc(N4CCOCC4)nc3)c(F)c2NC(=O)c2ccc(F)cc2C(F)(F)F)C[C@H](C)N1C [Example 10, N-(2,4-difluoro-3-(2-morpholinopyrimidin-5-yl)-6-((3S,5R)-3,4,5-trimethylpiperazin-1-yl)phenyl)-4-fluoro-2-(trifluoromethyl)benzamideformic acid] | 0.00033 µM | 0.01 µM | 0.0592 µM
18 | C[C@@H]1CN(c2cc(F)c(C3=CCCN(c4ncc(F)cn4)C3)c(F)c2NC(=O)c2c[nH]c(=O)cc2C(F)(F)F)C[C@H](C)N1C [Example 146, N-(2,4-difluoro-3-(1-(5-fluoropyrimidin-2-yl)-1,2,5,6-tetrahydropyridin-3-yl)-6-((3S,5R)-3,4,5-trimethylpiperazin-1-yl)phenyl)-6-oxo-4-(trifluoromethyl)-1,6-dihydropyridine-3-carboxamide] | 0.00165 µM | 0.021 µM | 0.239 µM
19 | C[C@H]1CN(c2ncc(-c3c(F)cc(N4CCN(C)[C@@H](C)C4)c(NC(=O)c4c[nH]c(=O)cc4C(F)F)c3F)cn2)CCO1 [Example 126, 4-(Difluoromethyl)-N-(6-((S)-3,4-dimethylpiperazin-1-yl)-2,4-difluoro-3-(2-((S)-2-methylmorpholino)pyrimidin-5-yl)phenyl)-6-oxo-1,6-dihydropyridine-3-carboxamide] | 0.00056 µM | 0.0118 µM | 0.0118 µM
20 | C[C@@H]1CN(c2cc(F)c(-c3cnc(N4CCO[C@@H](C)C4)nc3)c(F)c2NC(=O)c2c[nH]c(=O)cc2C(F)F)C[C@H](C)N1C [Example 125, N-(2,4-difluoro-3-(2-((S)-2-methylmorpholino)pyrimidin-5-yl)-6-((3S,5R)-3,4,5-trimethylpiperazin-1-yl)phenyl)-4-(difluoromethyl)-6-oxo-1,6-dihydropyridine-3-carboxamide] | 0.00069 µM | 0.0119 µM | 0.0194 µM

Reference: patent US20200385371A1 (Propellon Therapeutics Inc., priority 2017, published 2020)
